The structures appear in SMILES notation.

The assay deals with T1, E. coli nitroreductase NfsB (also called NfnB) (Escherichia coli, UniProt P38489).
T1 sequence (P38489 2-217): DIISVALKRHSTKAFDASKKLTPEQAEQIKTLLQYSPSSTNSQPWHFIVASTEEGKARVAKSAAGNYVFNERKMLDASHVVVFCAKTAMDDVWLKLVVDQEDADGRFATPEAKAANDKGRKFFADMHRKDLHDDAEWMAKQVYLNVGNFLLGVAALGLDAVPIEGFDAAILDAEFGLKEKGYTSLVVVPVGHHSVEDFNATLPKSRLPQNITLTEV
The experiment in a line: 1D 1H NMR titration, ligand proton shifts fitted to hyperbola. Type of assay: binding. The conditions noted are these: read-out: Apparent Kd. An excerpt: 1D 1H NMR titration, ligand proton shifts fitted to hyperbola on E. coli nitroreductase NfsB (also called NfnB)

For the compound `O=C(O)c1cccnc1` [nicotinate], the Kd was determined as 1900 ± 300 µM.

Values taken from article PMC7974150, “Backbone assignment of E. coli NfsB and the effects of addition of the cofactor analogue nicotinic acid” (Biomolecular Nmr Assignments, 2021).
